Values quoted from earlier work in patent US5786344A, “Camptothecin drug combinations and methods with reduced side effects” (priority 1995, dated 1998).
“Also recorded” adds a separate entry of the source.

What was measured:
tumors = conditions: preclinical and clinical tumors; cited from earlier work
[1] = human, in vivo; cited from earlier work
[2] = rats, cited from earlier work
[3] = cited from earlier work

SMILES: CCc1c2c(nc3ccc(OC(=O)N4CCC(N5CCCCC5)CC4)cc13)-c1cc3c(c(=O)n1C2)COC(=O)[C@]3(O)CC [CPT-11, 7-ethyl-10-[4-(1-piperidino)-1-piperidino)carbonyloxycamptot hecin]
- antitumor activity (tumors): significant activity in a broad spectrum of in vitro and in vivo tumor models; also recorded: antitumor activity in phase II trials
- DLT in Phase I studies in Japan and Europe/US [1]: either myelosuppression or diarrhea
- biliary radioactivity excreted over 24 h as ([2]; 24 h): 55%
- biliary radioactivity reabsorbed from the intestine [2]: approximately 18%
- route of excretion ([3]; animal studies): equally excreted into bile and urine
- dose eliminated in the urine ([3]; rats, % of CPT-11 dose): about 20%
